# Reference: PMC11787888, “Development and confirmation of humanized plasma and epithelial lining fluid exposures of meropenem, cefiderocol and tobramycin in a standardized neutropenic murine pneumonia model” (Journal of Antimicrobial Chemotherapy, 2024)
# Like-named read-outs stand apart in the source and are kept apart here.
# Tests used:
# [1] = design: method as in PMID 17283197, PMID 28848004; settings: murine plasma, previously determined; cited from earlier work
# [2] = ELF pharmacokinetics in the COMBINE murine neutropenic pneumonia model
# Experimental: (§1) The model followed the COMBINE protocol with laboratory-specific detailed methods as follows.[6] Specific pathogen free CD-1, female mice 6–8 weeks old were acquired from Charles River Laboratories, Inc. (Raleigh, NC, USA). All animals were allowed to acclimatize for 72 h before any study procedures and were housed as groups of six at controlled room temperature in HEPA-filtered cages (Innovive, San Diego, CA, USA). Study rooms were maintained with diurnal cycles (12 h light/12 h dark) and food and water were provided ad libitum.
# (§2) Neutropenia was achieved through 0.2 mL intraperitoneal (IP) administrations of cyclophosphamide 150 mg/kg on day minus 4 and an additional 100 mg/kg on day minus 1. A predictable degree of renal impairment was produced using 5 mg/kg of uranyl nitrate (Electron Microscopy Sciences, Hatfield, PA, USA) dissolved in sterile water administered as a 0.2 mL IP injection on day minus 3. […] Mice were anaesthetised using inhaled isoflurane, manually restrained upright and infected with 50 µL of bacterial suspension via the nares. Each bacterial inoculation suspension was used within 30 minutes of initial preparation.
# (§3) The purpose of these studies was to establish HSRs in both plasma and ELF in the COMBINE murine neutropenic pneumonia model equivalent to clinical doses of meropenem (2 g every 8 h as 3 h infusion),[9] cefiderocol (2 g every 8 h as 3 h infusion)[10] and tobramycin (7 mg/kg as 0.5 h infusion)[11–13] based on unbound (free) exposures.
# (§4) At predefined timepoints (shown in Figures 1–3), groups of six mice had blood sampled via retro-orbital bleeding (two time points, under anaesthesia with isoflurane 2%–3% v/v in 100% oxygen via inhalation) and/or cardiac puncture (one terminal time point). Proparacaine hydrochloride ophthalmic solution 0.5% was applied to the eye (1–2 drops) after blood sampling via retro-orbital bleeding. The volume of blood collected was 0.15 mL per sample via retro-orbital bleeding with subsequent fluid replacement using 0.2 mL normal saline given IP. Mice were euthanized by CO2 exposure before cardiac puncture. Following blood collection by cardiac puncture, but before cervical dislocation, bronchoalveolar lavage (BAL) fluid was collected from the mice at the same time points. A catheter was inserted into the trachea of the mice, and lungs were lavaged with four separate aliquots of 0.4 mL of normal saline. The BAL fluid was withdrawn immediately after injection and pooled for each animal. Pooled BAL was centrifuged for 10 min at 4°C and the supernatant was collected for analysis.
# (§5) Drug concentrations in ELF were estimated by correcting the drug concentration in BAL fluid for the dilution with normal saline during lung lavage using the following formula: compoundELF = compoundBAL × (ureaplasma/ureaBAL), where compoundBAL is the measured drug concentration in the BAL fluid sample and ureaplasma and ureaBAL are the concentrations of urea in paired plasma and BAL fluid samples from each mouse, respectively. Owing to the lack of albumin in BAL fluid, total ELF concentrations were considered unbound.
# (§6) Statistical outliers for each respective analyte were removed by the interquartile range method. Previously reported meropenem, cefiderocol and plazomicin (an aminoglycoside similar to tobramycin) plasma HSRs developed in alternative murine models were used as a baseline.[19],[20] Mathematical modifications were made to the baseline regimens as necessary to achieve translational exposures in the COMBINE model and repeat confirmatory PK studies were undertaken for both plasma and ELF.
# [3] = human plasma, 2 g every 8 h as a 3 h infusion; cited from earlier work
# [4] = design: method as in PMID 33371322, PMID 31724042, PMID 15107149; settings: cited from earlier work
# [5] = Plasma pharmacokinetics in the COMBINE murine neutropenic pneumonia model
# Experimental: as §1, §2, §3, §4, §5, §6
# [6] = mouse ELF, best-fit one-compartment model
# [7] = mouse plasma, best-fit one-compartment model
structure (smiles),measurement,setting,value
"CC(C)(O/N=C(\C(=O)N[C@@H]1C(=O)N2C(C(=O)[O-])=C(C[N+]3(CCNC(=O)c4ccc(O)c(O)c4Cl)CCCC3)CS[C@H]12)c1csc(N)n1)C(=O)O [Cefiderocol, cefiderocol]",Murine protein binding,[1],31.6%
same,k el,"[2]; female, CD-1, mouse, epithelial lining fluid (ELF), sc",0.0002 s⁻¹
same,%fT > MIC for a MIC of 1 µg/mL,"[2]; mouse ELF, ELF HSR",100%
same,%fT > MIC for a MIC of 2 µg/mL,"[2]; mouse ELF, ELF HSR",100%
same,%fT > MIC for a MIC of 4 µg/mL,"[2]; mouse ELF, ELF HSR",85%
same,%fT > MIC for a MIC of 8 µg/mL,"[2]; mouse ELF, ELF HSR",50%
same,%fT > MIC for a MIC of 16 µg/mL,"[2]; mouse ELF, ELF HSR",14%
same,%fT > MIC for a MIC of 32 µg/mL,"[2]; mouse ELF, ELF HSR",0%
same,%fT > MIC for a MIC of 64 µg/mL,"[2]; mouse ELF, ELF HSR",0%
same,%fT > MIC for a MIC of 128 µg/mL,"[2]; mouse ELF, ELF HSR",0%
same,K a-ELF (absorption rate constant into ELF compartment),[2]; [6],1.94 h⁻¹
same,V ELF (volume of distribution in ELF compartment),[2]; [6],0.33 L/kg
same,%fT > MIC for a MIC of 1 µg/mL,[3],100%
same,%fT > MIC for a MIC of 2 µg/mL,[3],99%
same,%fT > MIC for a MIC of 4 µg/mL,[3],98%
same,%fT > MIC for a MIC of 8 µg/mL,[3],76%
same,%fT > MIC for a MIC of 16 µg/mL,[3],48%
same,%fT > MIC for a MIC of 32 µg/mL,[3],11%
same,%fT > MIC for a MIC of 64 µg/mL,[3],0%
same,%fT > MIC for a MIC of 128 µg/mL,[3],0%
same,Human plasma protein binding,[4],58%
same,k el,"[5]; female, CD-1, mouse, plasma, sc",0.000206 s⁻¹
same,K a (absorption rate constant into central compartment),[5]; [7],21.71 h⁻¹
same,V plasma (volume of distribution in central compartment),[5]; [7],0.19 L/kg
same,%fT > MIC for a MIC of 1 µg/mL,"[5]; mouse plasma, plasma HSR",100%
same,%fT > MIC for a MIC of 2 µg/mL,"[5]; mouse plasma, plasma HSR",100%
same,%fT > MIC for a MIC of 4 µg/mL,"[5]; mouse plasma, plasma HSR",91%
same,%fT > MIC for a MIC of 8 µg/mL,"[5]; mouse plasma, plasma HSR",76%
same,%fT > MIC for a MIC of 16 µg/mL,"[5]; mouse plasma, plasma HSR",50%
same,%fT > MIC for a MIC of 32 µg/mL,"[5]; mouse plasma, plasma HSR",16%
same,%fT > MIC for a MIC of 64 µg/mL,"[5]; mouse plasma, plasma HSR",0%
same,%fT > MIC for a MIC of 128 µg/mL,"[5]; mouse plasma, plasma HSR",0%
